The values below come from patent US20100168102A9, “Amide Derivatives as Kinase Inhibitors” (Devgen NV, priority 2005, published 2010).

In general, pIC50 refers to −log10 of the IC50, conventionally taken in molar units. Higher therefore signals a small IC50. One may read the IC50 as the point on the concentration scale where inhibition reaches its midpoint.

One assay deals with PKCε. Description: Reporter assay (PathDetect trans reporter, Elk/SEAP) in reporter cell-lines over-expressing PKCε. It is filed as cell-based. An excerpt:
Whereas the reporter assay is focused on PKCε specific inhibition in a recombinant system, the monocytes assay is a biomarker assay that can be performed in isolated monocytes, full blood and in vivo to follow the pharmacological reduction of cytokine production:
The reporter assay exploits the effect of over-expressed PKCε on kinase activation and phosphorylation of a transcription factor to evaluate the potency and selectivity of PKCε inhibitors in a cellular context.
It has been shown by jae-Won Soh et al (MCB, February 1999 p 1313-1324) that over-expression of PKC epsilon results in the activation of MAPK-pathway (c-raf/MEK/ERK) leading to the activation of Elk transcription factor. This event can be monitored using the PathDetect trans reporter assay system (Stratagene): pFA2-ELK codes for a fusion protein between the Gal4 DNA binding domain and the transactivation domain of Elk which drives the expression of a secreted alkaline phosphatase (SEAP) reporter gene.
Compounds are incubated with reporter cell-lines either over-expressing PKCε, leading to continued activation of the kinase, or mock transfected cells. Inhibition of the PKCε induced signal in the absence of an effect on the basal level (mock transfected cells) is indicative for selective PKCε inhibition.
Background: Reporter assays use an easily measured gene product as a stand-in for the process of interest.

For a further assay, the target named is T1, PKC epsilon (Homo sapiens, UniProt Q02156).
T1 construct: purchased Invitrogen P2282
T1 sequence (Q02156 1-737): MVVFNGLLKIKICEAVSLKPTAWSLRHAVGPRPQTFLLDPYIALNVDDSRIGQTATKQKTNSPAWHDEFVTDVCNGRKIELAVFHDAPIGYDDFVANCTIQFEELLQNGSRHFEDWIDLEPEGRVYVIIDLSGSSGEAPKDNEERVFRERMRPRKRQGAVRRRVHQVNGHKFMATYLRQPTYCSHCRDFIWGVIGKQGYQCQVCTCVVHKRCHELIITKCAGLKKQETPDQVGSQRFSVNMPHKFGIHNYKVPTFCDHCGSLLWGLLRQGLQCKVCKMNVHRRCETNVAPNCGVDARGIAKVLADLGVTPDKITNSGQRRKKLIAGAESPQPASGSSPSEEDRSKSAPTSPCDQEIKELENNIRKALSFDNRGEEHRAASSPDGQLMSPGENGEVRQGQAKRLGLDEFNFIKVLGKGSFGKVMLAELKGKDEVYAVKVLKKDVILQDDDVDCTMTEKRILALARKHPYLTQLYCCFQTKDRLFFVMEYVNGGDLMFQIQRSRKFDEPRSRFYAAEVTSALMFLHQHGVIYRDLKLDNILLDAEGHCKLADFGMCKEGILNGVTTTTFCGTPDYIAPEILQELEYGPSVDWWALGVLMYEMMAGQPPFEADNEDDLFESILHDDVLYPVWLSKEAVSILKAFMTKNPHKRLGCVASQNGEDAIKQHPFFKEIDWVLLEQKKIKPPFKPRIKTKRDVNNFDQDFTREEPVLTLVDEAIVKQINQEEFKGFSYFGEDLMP
Description: Biochemical assay for PKC epsilon (fluorescence polarization, Protein Kinase C Assay Kit, Red). To be noted: read-out: IC50 μM PKCε. In outline:
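PKC epsilon at 10 ng/ml final was preincubated 30 min at room temperature with compound in HEPES pH 7.4 with DTT and Triton X-100. ATP/protein substrate was then added in buffer with MgCl2 and CaCl2 for 80 min. The reaction was stopped with EDTA, phosphorylation was detected by fluorescence polarization with rhodamine tracer and anti-phosphoserine antibody, and IC50 values came from curve fits.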
(Polarisation of emitted light reports the rotation of a fluorescent probe.)

A further assay addresses T2, PKC theta (Homo sapiens, UniProt Q04759).
T2 construct: purchased Invitrogen P2996
Description: Biochemical assay for PKC theta (fluorescence polarization, Protein Kinase C Assay Kit, Red). As to the method:
The compounds were tested for inhibition of PKC theta.
The inhibition assays were performed with a fluorescence polarization (FP) assay using the commercially available Protein Kinase C Assay Kit, Red, from Invitrogen (Product ID. No. P2941), essentially in accordance with the protocol supplied by the manufacturer. The substrate used was […] (Mw 1561), also obtained from Invitrogen (Product ID No. P2760). The isozyme PKC theta was also obtained from Invitrogen (Product ID No. P2996).
Staurosporine was used as a positive control (2 μM).
To perform the assay, 2 μl, of a solution of the compound to be tested in DMSO (at each concentration) was added to 6 μl of a solution of the enzyme in 10 mM HEPES, 5 mM dithiotreitol, 0.1% Triton X-100, pH 7.4. The final concentration of the enzymes was 60 ng/ml.
After incubating for 30 minutes at room temperature, 4 μl of a mixture of ATP and the protein substrate in 60 mM HEPES (pH7.4), 15 mM MgCl2, 0.3 mM CaCl2, 0.06% NP40 was added. The final concentration of the ATP was 2.5 μM and final concentration of protein substrate was 1 μM.
After incubating for 80 minutes at room temperature, 3 μl of a mix solution of 500 mM EDTA (stop solution) and the Rhodamine-based PKC Red Tracer (from the Protein Kinase C Assay Kit) in BGG/phosphate buffer (pH7.4) with 0.02% NaN3 and 0.1% Triton X-100 was added and 5 μl of a the Anti-Phosphoserine antibody (also from the Protein Kinase C Assay Kit) in BGG/phosphate buffer (pH7.4) with 0.02% NaN3.
The mixture thus obtained (total volume: 20 μl) was incubated for 60 minutes at room temperature, upon which the fluorescence polarization was measured using an automated plate reader (Perkin Elmer, Model Envision 2100-0010 HTS) with FP filters for rhodamine: excitation fitter FITC FP 531 and emission filters FITC FP P-pol 595 and FITC FP S-pol 595 (Perkin-Elmer). The results were fitted to a curve using the XL-Fit algorithm and IC50 values were calculated for each fitted curve, again using the XL-Fit algorithm.

In the next assay the target is T3, human ROCKα/ROCKII mix (Homo sapiens, UniProt O75116).
T3 construct: purchased Upstate Biotechnology 14-451
Description: Biochemical assay for ROCK (fluorescence polarization, ROCK IMAP Kit).

Where [1] appears, read: Table 2, compounds of Formula XIII.
Where [2] appears, read: compounds of Formula XIV, Table 3.

pIC50: −log10 of the molar value. Where a name gives a salt, the structure may show the parent alone. Read-outs that look alike come from different tables or passages of the source.

T2 sequence (Q04759 whole entry): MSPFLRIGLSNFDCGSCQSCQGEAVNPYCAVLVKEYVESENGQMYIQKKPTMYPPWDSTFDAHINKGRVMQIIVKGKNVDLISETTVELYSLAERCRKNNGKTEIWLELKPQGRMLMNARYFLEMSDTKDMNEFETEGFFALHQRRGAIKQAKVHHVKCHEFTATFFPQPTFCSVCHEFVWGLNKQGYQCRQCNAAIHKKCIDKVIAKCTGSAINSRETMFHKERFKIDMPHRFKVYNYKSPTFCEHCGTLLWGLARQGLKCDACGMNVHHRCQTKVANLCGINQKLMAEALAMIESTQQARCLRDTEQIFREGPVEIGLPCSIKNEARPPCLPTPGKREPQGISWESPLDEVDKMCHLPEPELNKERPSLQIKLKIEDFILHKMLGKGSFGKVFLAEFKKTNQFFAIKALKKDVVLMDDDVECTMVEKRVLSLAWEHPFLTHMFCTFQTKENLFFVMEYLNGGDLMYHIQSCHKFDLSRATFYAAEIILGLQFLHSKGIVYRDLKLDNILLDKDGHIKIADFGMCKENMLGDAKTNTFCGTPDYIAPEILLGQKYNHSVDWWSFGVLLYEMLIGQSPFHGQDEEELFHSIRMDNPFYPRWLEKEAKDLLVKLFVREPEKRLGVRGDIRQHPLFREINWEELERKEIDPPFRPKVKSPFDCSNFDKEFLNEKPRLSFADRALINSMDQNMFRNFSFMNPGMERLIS
T3 sequence (O75116 11-552 limits assumed): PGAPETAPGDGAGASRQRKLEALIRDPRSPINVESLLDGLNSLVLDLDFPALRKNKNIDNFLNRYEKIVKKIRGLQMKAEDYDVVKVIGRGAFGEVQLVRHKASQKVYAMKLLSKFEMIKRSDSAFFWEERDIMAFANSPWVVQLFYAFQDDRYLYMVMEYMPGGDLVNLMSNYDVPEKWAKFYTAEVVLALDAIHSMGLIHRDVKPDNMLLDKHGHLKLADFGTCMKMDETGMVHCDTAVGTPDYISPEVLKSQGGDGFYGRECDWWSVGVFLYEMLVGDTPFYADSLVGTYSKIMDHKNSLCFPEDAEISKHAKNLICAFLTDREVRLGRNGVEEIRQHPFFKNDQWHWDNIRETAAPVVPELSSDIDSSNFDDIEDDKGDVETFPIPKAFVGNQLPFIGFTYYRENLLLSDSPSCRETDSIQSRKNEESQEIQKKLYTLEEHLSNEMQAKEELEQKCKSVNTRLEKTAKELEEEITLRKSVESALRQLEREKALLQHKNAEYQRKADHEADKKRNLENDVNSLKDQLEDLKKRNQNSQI

Turning to `NC(CNC(=O)C1(c2ccc(F)cc2)CC1)c1ccc(C(=O)Nc2ccncc2)cc1` (stereo not drawn) [Compound 340, 4-(1-Amino-2-{[1-(4-fluoro-phenyl)-cyclopropanecarbonyl]-amino}-ethyl)-N-pyridin-4-yl-benzamide], the pIC50 in the assay on PKCε is over 5.30. On PKC epsilon (setting [1]), the IC50 was under 0.05 µM.

On to `CC(C)(C(=O)NCC(N)c1ccc(C(=O)Nc2ccncc2)cc1)c1ccc(Cl)cc1` (stereo not drawn) [Compound 335, 4-{1-Amino-2-[2-(4-chloro-phenyl)-2-methyl-propionylamino]-ethyl}-N-pyridin-4-yl-benzamide], for which the pIC50 was 6.30 to 7.30 at PKC theta and over 5.30 in the assay on PKCε. For the same compound, the IC50 on PKC epsilon (setting [1]) is under 0.05 µM.

For `NC(CNC(=O)C1(c2ccc(Cl)cc2)CC1)c1ccc(C(=O)Nc2ccnc3[nH]ccc23)cc1` (stereo not drawn) [Compound 371, 4-(1-Amino-2-{[1-(4-chloro-phenyl)-cyclopropanecarbonyl]-amino}-ethyl)-N-(1H-pyrrolo[2,3-b]pyridin-4-yl)-benzamide dihydrochloric acid salt], the pIC50 against PKC theta was over 7.30; with PKCε, over 5.30.

`NC(CNC(=O)C1CCCCc2ccc(F)cc21)c1ccc(C(=O)Nc2ccncc2)cc1` (stereo not drawn) [Compound 356, 3-Fluoro-6,7,8,9-tetrahydro-5H-benzocycloheptene-5-carboxylic acid {2-amino-2-[4-(pyridin-4-ylcarbamoyl)-phenyl]-ethyl}-amide] had a pIC50 in the assay on PKCε of over 5.30. Besides, the IC50 on human ROCKα/ROCKII mix (setting [1]) was 0.05 to 0.5 µM; at PKC epsilon (setting [1]), under 0.05 µM.

As to `N[C@H](CC(=O)N[C@@H]1CCCc2ccccc21)c1ccc(C(=O)Nc2ccncc2)cc1` [Compound 373, 4-{(R)-1-Amino-2-[(R)-(1,2,3,4-tetrahydro-naphthalen-1-yl)carbamoyl]-ethyl}-N-pyridin-4-yl-benzamide dihydrochloric acid salt], in the assay on PKCε, the pIC50 is over 5.30. In addition, the half-inhibitory concentration (IC50) at human ROCKα/ROCKII mix and on PKC epsilon was under 0.05 µM in each case.

As for “4-[1-Amino-2-(2,4- dimethoxy- benzylcarbamoyl)-ethyl]- N-pyridin-4-yl-benzamide [Compound 241]”, the IC50 fell in the range of 0.05 to 0.5 µM against human ROCKα/ROCKII mix (setting [2]) and 0.5 to 5 µM at PKC epsilon (setting [2]).

Take `CN(CC(N)c1ccc(C(=O)Nc2ccncc2)cc1)C(=O)Cc1ccc(Cl)cc1Cl` (stereo not drawn) [Compound 490, 4-(1-Amino-2-{[2-(2,4-dichloro-phenyl)-acetyl]-methyl-amino}-ethyl)-N-pyridin-4-yl-benzamide]: the IC50 is 0.5 to 5 µM at human ROCKα/ROCKII mix and 5 to 50 µM at PKC epsilon.

Turning to `NC(c1ccc(C(=O)Nc2ccncc2)cc1)C1CCCN1C(=O)C1(c2ccc(F)c(F)c2)CC1` (stereo not drawn) [Compound 587, 4-(Amino-{1-[1-(3,4-difluoro-phenyl)-cyclopropanecarbonyl]-pyrrolidin-2-yl}-methyl)-N-pyridin-4-yl-benzamide], the IC50 on human ROCKα/ROCKII mix and on PKC epsilon was 0.5 to 5 µM throughout.

With “4-(1-Amino-2-{[2-(4-fluoro- phenyl)-acetyl]-methyl- amino}-ethyl)- N-pyridin-4-yl-benzamide [Compound 471]”, the IC50 against human ROCKα/ROCKII mix lay within 0.5 to 5 µM; at PKC epsilon, 5 to 50 µM.

As for `NC(c1ccc(C(=O)Nc2ccncc2)cc1)C1CCCN1C(=O)Cc1csc(-c2ccccc2)n1` (stereo not drawn) [Compound 546, 4-(Amino-{1-[2-(2-phenyl-thiazol-4-yl)-acetyl]-pyrrolidin-2-yl}-methyl)-N-pyridin-4-yl-benzamide], the IC50 against human ROCKα/ROCKII mix and at PKC epsilon was 0.5 to 5 µM each time.

Regarding `Cc1ccsc1C=NOCC(=O)NCC(N)c1ccc(C(=O)Nc2ccncc2)cc1` (stereo not drawn) [Compound 61, 4-{1-Amino-2-[2-(3-methyl-thiophen-2-ylmethyleneaminooxy)-acetylamino]-ethyl}-N-pyridin-4-yl-benzamide], the IC50 against human ROCKα/ROCKII mix (setting [1]) is 0.5 to 5 µM; on PKC epsilon (setting [1]) it was 5 to 50 µM.

Regarding `NC(CNC(=O)C1CCOc2ccc(F)cc21)c1ccc(C(=O)Nc2ccncc2)cc1` (stereo not drawn) [Compound 393, 6-Fluoro-chroman-4-carboxylic acid {2-amino-2-[4-(pyridin-4-ylcarbamoyl)-phenyl]-ethyl}-amide], the IC50 against human ROCKα/ROCKII mix (setting [1]) and on PKC epsilon (setting [1]) was 0.05 to 0.5 µM each time.

For the compound `NC(CC(=O)N[C@@H]1CCc2ccccc21)c1ccc(C(=O)Nc2ccncc2)cc1` (stereo partly drawn) [Compound 358, 4-[1-Amino-2-((R)-indan-1-ylcarbamoyl)-ethyl]-N-pyridin-4-yl-benzamide], the IC50 against human ROCKα/ROCKII mix (setting [2]) and on PKC epsilon (setting [2]) was 0.05 to 0.5 µM throughout.

Turning to `Cc1ccc(C)c(CNC(=O)CC(N)c2ccc(C(=O)Nc3ccncc3)cc2)c1` (stereo not drawn) [Compound 234, 4-[1-Amino-2-(2,5-dimethyl-benzylcarbamoyl)-ethyl]-N-pyridin-4-yl-benzamide], the IC50 against human ROCKα/ROCKII mix (setting [2]) lay within 0.05 to 0.5 µM; at PKC epsilon (setting [2]) it was 0.5 to 5 µM.

`NC(c1ccc(C(=O)Nc2ccncc2)cc1)C1CCCN1C(=O)C1(c2ccc(F)c(F)c2)CCCC1` (stereo not drawn) [Compound 589, 4-(Amino-{1-[1-(3,4-difluoro-phenyl)-cyclopentanecarbonyl]-pyrrolidin-2-yl}-methyl)-N-pyridin-4-yl-benzamide]: the IC50 at human ROCKα/ROCKII mix and at PKC epsilon was 0.5 to 5 µM each time.

In turn, `NC(CNC(=O)C1(c2ccc(Cl)cc2)CC1)c1ccc(C(=O)Nc2ccncc2)cc1` (stereo not drawn) [Compound 168, 4-(1-Amino-2-{[1-(4-chloro-phenyl)-cyclopropanecarbonyl]-amino}-ethyl)-N-pyridin-4-yl-benzamide dihydrochloride] gave a pIC50 against PKC theta of 6.30 to 7.30. The IC50 was 0.05 to 0.5 µM against human ROCKα/ROCKII mix (setting [1]) and under 0.05 µM at PKC epsilon (setting [1]).

Turning to `CONC(=O)CC(N)c1ccc(C(=O)Nc2ccncc2)cc1` (stereo not drawn) [Compound 183, 4-(1-amino-2-methoxycarbamoyl-ethyl)-N-pyridin-4-yl-benzamide], the IC50 is 0.05 to 0.5 µM against human ROCKα/ROCKII mix (setting [2]) and 0.5 to 5 µM at PKC epsilon (setting [2]).

Turning to `CC(C)(C(=O)NCC(N)c1ccc(C(=O)Nc2ccncc2)cc1)c1cccs1` (stereo not drawn) [Compound 348, 4-[1-Amino-2-(2-methyl-2-thiophen-2-yl-propionylamino)-ethyl]-N-pyridin-4-yl-benzamide], the IC50 against human ROCKα/ROCKII mix (setting [1]) was 0.05 to 0.5 µM; on PKC epsilon (setting [1]) it was under 0.05 µM.

For `COc1ccc(NC(=O)NCC(N)c2ccc(C(=O)Nc3ccncc3)cc2)cc1` (stereo not drawn) [Compound 30, 4-{1-amino-2-[3-(4-methoxy-phenyl)-ureido]-ethyl}-N-pyridin-4-yl-benzamide], the results for the IC50 against human ROCKα/ROCKII mix and on PKC epsilon were 0.05 to 0.5 µM and 0.5 to 5 µM, respectively.
